# In patent US10597388B2, “Pyridazinone herbicides” (FMC CORPORATION, priority 2014, dated 2020):
# Columns and labels:
# Format in all cases: in vivo
# corn (Zea mays) = assay: Test A greenhouse herbicide test, pre- and postemergence; conditions: Postemergence; for Corn plant response rating: 0 to 100 scale, 0 is no effect, 100 is complete control
# In short: (§1)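 Seeds in loam–sand blend received a preemergence directed soil spray; plants at 2–10 cm, one- to two-leaf stage, received postemergence sprays. Compounds in a non-phytotoxic solvent with surfactant. After about 10 d in a greenhouse, injury rated visually versus untreated controls on a 0–100 scale (100 = complete control).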
# [1] = system: barnyardgrass (Echinochloa crus-galli); assay: as above
# In short: as §1
# [2] = system: ragweed (common ragweed, Ambrosia elatior); assay: as above
# In short: as §1
# kochia (Kochia scoparia) [3] = assay: as above
# In short: as §1
# [4] = system: foxtail, giant (giant foxtail, Setaria faberii); assay: as above
# In short: as §1
# [5] = system: chickweed (common chickweed, Stellaria media); assay: Test C greenhouse herbicide test, postemergence
# Text: (§2) At the same time, plants selected from these crop and weed species and also chickweed (common chickweed, Stellaria media), kochia (Kochia scoparia), and oat, wild (wild oat, Avena fatua), were planted in pots containing Redi-Earth® planting medium (Scotts Company, 14111 Scottslawn Road, Marysville, Ohio 43041) comprising spaghnum peat moss, vermiculite, wetting agent and starter nutrients and treated with postemergence applications of test chemicals formulated in the same manner. Plants ranged in height from 2 to 18 cm (1- to 4-leaf stage) for postemergence treatments. Treated plants and controls were maintained in a greenhouse for 13 to 15 d, after which time all species were compared to controls and visually evaluated. Plant response ratings, summarized in Table C, are based on a scale of 0 to 100 where 0 is no effect and 100 is complete control. A dash (-) response means no test result.
# [6] = system: oat, wild (wild oat, Avena fatua); assay: Test C greenhouse herbicide test, postemergence
# Text: as §2
# kochia (Kochia scoparia) [7] = assay: Test C greenhouse herbicide test, postemergence
# Text: as §2
# [8] = 125 g ai/ha, 0 to 100 scale where 0 is no effect and 100 is complete control
# [9] = Postemergence, 125 g ai/ha, 0 to 100 scale where 0 is no effect and 100 is complete control
# [10] = Postemergence, 500 g ai/ha, 0 to 100 scale, 0 is no effect, 100 is complete control
# [11] = Preemergence, 125 g ai/ha, 0 to 100 scale where 0 is no effect and 100 is complete control
# [12] = Preemergence, 500 g ai/ha, 0 to 100 scale, 0 no effect, 100 complete control
# [13] = Preemergence, 500 g ai/ha, 0 to 100 scale where 0 is no effect and 100 is complete control
# [14] = Postemergence, 31 g ai/ha, 0 to 100 scale (0 no effect, 100 complete control)
# [15] = Postemergence, 125 g ai/ha, scale 0 to 100, 0 is no effect, 100 is complete control
# [16] = Postemergence, 250 g ai/ha, scale 0 to 100, 0 no effect, 100 complete control, 13 to 15 d
# [17] = postemergence, 62 g ai/ha, scale 0 to 100, 0 no effect, 100 complete control
# [18] = 500 g ai/ha, visual rating after approx. 10 d, 0 to 100 scale (0 no effect, 100 complete control)
# [19] = Postemergence, 500 g ai/ha, visual rating after approx. 10 d, 0 to 100 scale (0 no effect, 100 complete control)
# [20] = Postemergence, 31 g ai/ha, scale 0 to 100 (0 no effect, 100 complete control)
Compound,"Plant response rating, Corn (corn (Zea mays); [8])","Plant response rating, Barnyardgrass [1, 9]","Barnyardgrass plant response rating [1, 10]","Barnyardgrass plant response rating [1, 11]","Plant response rating, Ragweed [2, 9]","Ragweed plant response rating [2, 11]","Plant response rating, Ragweed [2, 13]","Plant response rating, Kochia (kochia (Kochia scoparia) [3]; [9])",Kochia plant response rating (kochia (Kochia scoparia) [3]; [11]),"Plant response rating, Kochia (kochia (Kochia scoparia) [3]; [13])","Plant response rating, Foxtail, Giant [4, 9]","Foxtail, Giant plant response rating [4, 11]","Plant response rating, Foxtail, Giant [4, 13]","Plant response rating, Chickweed [5, 15]","Plant response rating, Chickweed [5, 16]","Chickweed plant response rating [5, 17]","Plant response rating, Oat, Wild [6, 15]","Plant response rating, Oat, Wild [6, 16]","Plant response rating, Kochia (kochia (Kochia scoparia) [7]; [15])","Plant response rating, Kochia (kochia (Kochia scoparia) [7]; [16])",further results
CCC(=O)Oc1c(C)nn(C)c(=O)c1-c1c(C)ccc2ccccc12 [Compound 78],0,20,30,0,40,60,90,50,20,100,20,20,60,70,80,60,60,60,85,90,"Corn plant response rating (corn (Zea mays); 500 g ai/ha): 0; Plant response rating, Barnyardgrass [1, 12]: 70; Ragweed plant response rating [2, 10]: 80; Kochia plant response rating (kochia (Kochia scoparia) [3]; [10]): 90; Foxtail, Giant plant response rating [4, 10]: 70; Chickweed plant response rating [5, 14]: 30; Oat, Wild plant response rating [6, 14]: 35; Oat, Wild plant response rating [6, 17]: 50; Kochia plant response rating (kochia (Kochia scoparia) [7]; [14]): 45; Kochia plant response rating (kochia (Kochia scoparia) [7]; [17]): 70"
COC(=O)Oc1c(C)nn(C)c(=O)c1-c1c(C)sc2ccc(C)cc12 [Compound 80],0,70,80,70,80,80,90,90,90,90,80,80,90,95,98,95,90,95,90,90,"Corn plant response rating (corn (Zea mays); 500 g ai/ha): 0; Plant response rating, Barnyardgrass [1, 12]: 90; Ragweed plant response rating [2, 10]: 90; Kochia plant response rating (kochia (Kochia scoparia) [3]; [10]): 90; Foxtail, Giant plant response rating [4, 10]: 80; Chickweed plant response rating [5, 14]: 90; Oat, Wild plant response rating [6, 14]: 90; Oat, Wild plant response rating [6, 17]: 90; Kochia plant response rating (kochia (Kochia scoparia) [7]; [14]): 90; Kochia plant response rating (kochia (Kochia scoparia) [7]; [17]): 90"
COC(=O)Oc1cnn(C)c(=O)c1-c1c(C)sc2ccccc12 [Compound 97],10,30,90,20,90,90,100,90,80,100,80,60,100,15,60,0,5,10,70,85,"Plant response rating, Corn (corn (Zea mays); [18]): 70; Plant response rating, Barnyardgrass [1, 13]: 100; Plant response rating, Ragweed [2, 19]: 100; Plant response rating, Kochia (kochia (Kochia scoparia) [3]; [19]): 100; Plant response rating, Foxtail, Giant [4, 19]: 100; Chickweed plant response rating [5, 14]: 0; Oat, Wild plant response rating [6, 17]: 5; Kochia plant response rating (kochia (Kochia scoparia) [7]; [17]): 0"
CCCC(=O)Oc1c(C)nn(C)c(=O)c1-c1c(C)sc2ccc(C)cc12 [Compound 105],0,50,90,20,90,100,100,90,100,100,70,90,100,98,100,95,90,90,95,100,"Plant response rating, Corn (corn (Zea mays); [18]): 30; Plant response rating, Barnyardgrass [1, 13]: 100; Plant response rating, Ragweed [2, 19]: 100; Plant response rating, Kochia (kochia (Kochia scoparia) [3]; [19]): 90; Plant response rating, Foxtail, Giant [4, 19]: 90; Plant response rating, Chickweed [5, 20]: 90; Plant response rating, Oat, Wild [6, 20]: 60; Plant response rating, Kochia (kochia (Kochia scoparia) [7]; [20]): 95"
CCCC(=O)Oc1c(C)nn(C)c(=O)c1-c1c(CC)sc2ccc(C)cc12 [Compound 107],0,60,100,70,90,90,100,80,20,90,70,70,100,95,98,90,40,35,90,90,"Plant response rating, Corn (corn (Zea mays); [18]): 30; Plant response rating, Barnyardgrass [1, 13]: 100; Plant response rating, Ragweed [2, 19]: 90; Plant response rating, Kochia (kochia (Kochia scoparia) [3]; [19]): 90; Plant response rating, Foxtail, Giant [4, 19]: 90; Plant response rating, Chickweed [5, 20]: 90; Plant response rating, Oat, Wild [6, 20]: 20; Plant response rating, Kochia (kochia (Kochia scoparia) [7]; [20]): 70"
